The text below walks through data of article PMC6270635, “Phenolic Esters of O-Desmethylvenlafaxine with Improved Oral Bioavailability and Brain Uptake” (Molecules, 2013).

Details of data set [1]: method as in PMID 21925241. The note with it: rat, oral administration; cited from earlier work.
For data set [2] the following is noted: cited from earlier work.
On the set-up of data set [3]: method as in PMID 23517291, PMID 23334675. The note with it: ODV as the succinate salt; cited from earlier work.

The structures appear in SMILES notation.

The molecule `CN(C)CC(c1ccc(OC(=O)C2CCCCCC2)cc1)C1(O)CCCCC1` (stereo not shown) [1e, 4-(2-(Dimethylamino)-1-(1-hydroxycyclohexyl)ethyl)phenyl cycloheptanecarboxylate] showed a melting point of 110 to 112 °C.

As to `CN(C)CC(c1ccc(OC(=O)c2ccsc2)cc1)C1(O)CCCCC1` (stereo not shown) [1h, 4-(2-(Dimethylamino)-1-(1-hydroxycyclohexyl)ethyl)phenyl thiophene-3-carboxylate], the melting point fell in the range of 168 to 172 °C. Molecule `CN(C)CC(c1ccc(OC(=O)c2ccc3c(c2)OCCO3)cc1)C1(O)CCCCC1` (stereo not shown) [1o, 4-(2-(Dimethylamino)-1-(1-hydroxycyclohexyl)ethyl)phenyl 2,3-dihydrobenzo[b][1,4]dioxine-6-carboxylate] came in with a melting point of 159 to 162 °C. With `COc1ccc(C(=O)Oc2ccc(C(CN(C)C)C3(O)CCCCC3)cc2)cc1` (stereo not shown) [1k, 4-(2-(Dimethylamino)-1-(1-hydroxycyclohexyl)ethyl)phenyl 4-methoxybenzoate], the melting point was in the range of 133 to 137 °C. Further, in data set [1], the “relative bioavailability compared with ODV” value is listed as “higher relative bioavailability than ODV”.

`CN(C)CC(c1ccc(OC(=O)c2ccoc2)cc1)C1(O)CCCCC1` (stereo not shown) [1g, 4-(2-(Dimethylamino)-1-(1-hydroxycyclohexyl)ethyl)phenyl furan-3-carboxylate] showed a melting point of 159 to 162 °C. `CC(C)C1CCC(C(=O)Oc2ccc(C(CN(C)C)C3(O)CCCCC3)cc2)CC1` (stereo not shown) [1d, 4-(2-(Dimethylamino)-1-(1-hydroxycyclohexyl)ethyl)phenyl 4-isopropylcyclohexanecarboxylate]: the melting point was 149 to 152 °C.

The molecule `CN(C)CC(c1ccc(OC(=O)C=Cc2ccccc2)cc1)C1(O)CCCCC1` (stereo not shown) [1m, 4-(2-(Dimethylamino)-1-(1-hydroxycyclohexyl)ethyl)phenyl cinnamate] returned a melting point of 118 to 122 °C.

In turn, `CN(C)CC(c1ccc(OC(=O)c2cccnc2)cc1)C1(O)CCCCC1` (stereo not shown) [1i, 4-(2-(Dimethylamino)-1-(1-hydroxycyclohexyl)ethyl)phenyl nicotinate] came in with a melting point of 180 to 182 °C. In the case of `CN(C)CC(c1ccc(OC(=O)CCc2ccccc2)cc1)C1(O)CCCCC1` (stereo not shown) [1l, 4-(2-(Dimethylamino)-1-(1-hydroxycyclohexyl)ethyl)phenyl 3-phenylpropanoate], the melting point fell in the range of 124 to 127 °C.

As for `CN(C)CC(c1ccc(OC(=O)C(C)(C)C)cc1)C1(O)CCCCC1` (stereo not shown) [1a, 4-(2-(Dimethylamino)-1-(1-hydroxycyclohexyl)ethyl)phenyl pivalate], the melting point lay within 131 to 133 °C. In the case of `CC1CCC(C(=O)Oc2ccc(C(CN(C)C)C3(O)CCCCC3)cc2)CC1` (stereo not shown) [1c, 4-(2-(Dimethylamino)-1-(1-hydroxycyclohexyl)ethyl)phenyl 4-methylcyclohexanecarboxylate], the melting point lay within 157 to 159 °C. Regarding `CN(C)CC(c1ccc(OC(=O)c2ccc3c(c2)OCO3)cc1)C1(O)CCCCC1` (stereo not shown) [1n, 4-(2-(Dimethylamino)-1-(1-hydroxycyclohexyl)ethyl)phenyl benzo[d][1,3]dioxole-5-carboxylate], the melting point fell in the range of 154 to 157 °C. In the case of `CN(C)CC(c1ccc(O)cc1)C1(O)CCCCC1` (stereo not shown) [ODV, O-Desmethylvenlafaxine], the bioavailability in humans entry in data set [2] is listed as “ca. 80%”. Further, the minimum effective dose in data set [3] is on record as 50 mg/day. Take `CN(C)CC(c1ccc(OC(=O)C2CCCCC2)cc1)C1(O)CCCCC1` (stereo not shown) [1b, 4-(2-(Dimethylamino)-1-(1-hydroxycyclohexyl)ethyl)phenyl cyclohexanecarboxylate]: the melting point was in the range of 122 to 124 °C.
